Test results taken from patent US9925232B2, “Methods and compositions comprising desmopressin in combination with a 5-alpha reductase inhibitor” (Serenity Pharmaceuticals LLC, priority 2013, dated 2018).

Legend:
[1] = test system: patients experiencing on average at least two nocturnal voids per night; test: Clinical study: reduction in the average number of nocturnal voids (Responder / Non-Responder); assay type: in vivo, human
Method: A clinical study was performed to evaluate the impact of administering desmopressin in combination with a 5-alpha reductase inhibitor alone or together with an alpha-adrenergic receptor antagonist to reduce the occurrence of nocturnal voiding by a patient. Experimental procedures and results are described below. […] Patients received as a nasal spray either (i) a 1.5 μg dosage of desmopressin or (ii) placebo. The desmopressin nasal spray (or placebo) was administered daily just prior to bedtime for a duration of twelve weeks. In addition, patients previously diagnosed as suffering from benign prostatic hyperplasia (BPH) and receiving a 5-alpha reductase inhibitor alone or together with an alpha-adrenergic receptor antagonist for treatment of BPH continued to receive the 5-alpha reductase inhibitor alone or together with the alpha-adrenergic receptor antagonist at the same dosage and frequency used prior to enrollment in this study. All patients in this study who received a 5-alpha reductase inhibitor alone or together with an alpha-adrenergic receptor antagonist for treatment of their BPH had been receiving the 5-alpha reductase inhibitor alone or together with the alpha-adrenergic receptor antagonist for at least 2 months before enrollment in this study and experienced on average at least two nocturnal voids per night before enrollment in this study. The desmopressin nasal spray was prepared by combining aliquots of an Emulsion Stock Solution and a Buffer Solution as described below. To produce the desmopressin nasal spray, aliquots of the 30 μg/mL solution were filtered to eliminate any bacterial contamination and diluted with an equal volume of emulsion stock solution to produce aseptic, preservative free dose forms comprising 15 μg/mL desmopressin, pH 5.5, containing 2% cyclopentadecanolide. These were bottled in sterile pump spray bottles fitted with a Pfeiffer APF pump sprayers that deliver 100 μL per metered spray (i.e., 1.5 μg desmopressin (i.e., 1500 ng desmopressin) per spray). The liquid contains no detectable microorganisms. Patients recorded the occurrence of nocturnal voids during the study period. Patients were designated to be a “Responder” if after receiving treatment there was a reduction in the average number of nocturnal voids during the treatment period.

[2] = human, in vivo; cited from earlier work
[3] = BPH patients receiving 5-alpha reductase inhibitor alone or together with alpha-adrenergic receptor antagonist, 1.5 μg nasal spray daily, twelve weeks, n = 14
[4] = BPH patients, second component none (no 5-alpha reductase inhibitor or alpha-adrenergic receptor antagonist), 1.5 μg nasal spray daily, twelve weeks, n = 42
[5] = BPH patients, alpha-adrenergic receptor antagonist and 5-alpha reductase inhibitor, 1.5 μg desmopressin nasal spray daily, twelve weeks, n = 14
[6] = BPH patients, second component 5-alpha reductase inhibitor, 1.5 μg desmopressin nasal spray daily prior to bedtime, twelve weeks, n = 14
[7] = male patients without BPH, second component none, 1.5 μg nasal spray daily, twelve weeks, n = 34

For `NC(=O)CC[C@@H]1NC(=O)[C@H](Cc2ccccc2)NC(=O)[C@H](Cc2ccc(O)cc2)NC(=O)CCSSC[C@@H](C(=O)N2CCC[C@H]2C(=O)N[C@H](CCCN=C(N)N)C(=O)NCC(N)=O)NC(=O)[C@H](CC(N)=O)NC1=O` [Desmopressin, 1-desamino-8-D-arginine vasopressin], the “Difference in Responder Response Rate Between Desmopressin-treated Patients & Those Receiving Placebo” value (from here on “Difference”) ([1]; BPH patients receiving 5-alpha reductase inhibitor alone or together with alpha-adrenergic receptor antagonist) was 40%, the “Non-Responder Patients: Total Number of Patients that Received Desmopressin” value [1, 3] was 6 and the “Percent Total Non-Responder Patients that Received Desmopressin” value [1, 3] was 43% (6/14). The “Percent Total Responder Patients that Received Desmopressin (absolute response rate)” value [1, 3] was 57%, the “Responder Patients: Total Number of Patients that Received Desmopressin” value [1, 3] was 8 and the “Difference” value ([1]; BPH patients receiving 5-alpha reductase inhibitor alone or together with alpha-adrenergic receptor antagonist, listed as desmopressin) was 40%. For the same molecule, the “Difference” value ([1]; BPH patients that did not receive a 5-alpha reductase inhibitor or an alpha-adrenergic receptor antagonist) was 14%, the “Difference” value ([1]; BPH patients that did not receive a 5-alpha reductase inhibitor or an alpha-adrenergic receptor antagonist, listed as desmopressin) was 14% and the “Non-Responder Patients: Number of Patients that Received Desmopressin” value (“Non-Responder Patients: Number” for short) [1, 4] was 24. The “Percent Total Non-Responder Patients that Received Desmopressin” value [1, 4] was 57%, the “Percent Total Responder Patients that Received Desmopressin (absolute response rate)” value [1, 4] was 43% and the “Responder Patients: Number of Patients that Received Desmopressin” value [1, 4] was 18. The “Percent Total Responder Patients that Received Desmopressin (absolute response rate)” value ([1]; BPH patients, second component none (no 5-alpha reductase inhibitor or alpha-adrenergic receptor antagonist), 1.5 μg nasal spray daily, twelve weeks, n = 42, listed as desmopressin) was 43%, the “Non-Responder Patients: Number” value [1, 5] was 2 and the “Responder Patients: Number of Patients that Received Desmopressin” value [1, 5] was 5. For the same molecule, the “Non-Responder Patients: Number” value [1, 6] was 4, the “Responder Patients: Number of Patients that Received Desmopressin” value [1, 6] was 3 and the “Difference” value ([1]; male patients not diagnosed with BPH, not receiving a 5-alpha reductase inhibitor or an alpha-adrenergic receptor antagonist) was 18%. For the same molecule, the “Difference” value ([1]; male patients not diagnosed with BPH, not receiving a 5-alpha reductase inhibitor or an alpha-adrenergic receptor antagonist, listed as desmopressin) was 18%, the “Non-Responder Patients: Number” value [1, 7] was 16 and the “Percent Total Non-Responder Patients that Received Desmopressin” value [1, 7] was 47%. The “Percent Total Responder Patients that Received Desmopressin (absolute response rate)” value [1, 7] was 53%, the “Responder Patients: Number of Patients that Received Desmopressin” value [1, 7] was 18 and the “Percent Total Responder Patients that Received Desmopressin (absolute response rate)” value ([1]; male patients without BPH, second component none, 1.5 μg nasal spray daily, twelve weeks, n = 34, listed as desmopressin) was 53%. For the same molecule, the “half-life (known clearance rate)” value [2] was 1.5 to 2.0 h.
